Measurements: the supplement of paper PMC10307832

Assays:
Test in all cases: relative viability (nuclei count vs DMSO), 5 days (fraction); higher = more cells survive
Bortezomib = compound: CC(C)C[C@H](NC(=O)[C@H](Cc1ccccc1)NC(=O)c1cnccn1)B(O)O [Bortezomib]
Summary of the method: (§1)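 Lung cancer cell lines in 1536-well plates were exposed by pinning to five library-drug doses (not always all listed) √10 apart, following an overnight hold at 37 °C. MetaXpress counted Hoechst-stained nuclei from 4× images taken after 5 days without medium change. Viability is the median ratio of treated-well to vehicle-well nuclei across plates. Plates required control CV below 25% and at least one doubling.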

[1] = compound: CC1=CC(=NN1)NC2=CC(=NC(=N2)/C=C/C3=CC=CC=C3)N4CCN(CC4)C
Summary of the method: as §1

Obatoclax = compound: COC1=CC(c2cc3ccccc3[nH]2)=N/C1=C\c1[nH]c(C)cc1C [Obatoclax]
Summary of the method: as §1

Cell Line | relative viability (Bortezomib; 0.0002 µM) | relative viability (Bortezomib; 0.002 µM) | relative viability (Bortezomib; 0.002 µM, anchor plate) | relative viability (Bortezomib; 0.006325 µM) | relative viability (Bortezomib; 0.02 µM) | relative viability ([1]; 0.08 µM) | relative viability ([1]; 0.253 µM) | relative viability ([1]; 0.8 µM) | relative viability ([1]; 2.53 µM) | relative viability ([1]; 8 µM) | relative viability (Obatoclax; 0.01 µM) | relative viability (Obatoclax; 0.03162 µM) | relative viability (Obatoclax; 0.1 µM) | relative viability (Obatoclax; 0.3162 µM) | relative viability (Obatoclax; 1 µM) | relative viability (Bortezomib; 0.000632 µM)
NCI-H322M | 0.922 | 0.918 | 1.24 | 0.458 | 0.421 | 0.951 | 0.969 | 0.847 | 0.413 | 0.281 | 0.975 | 0.783 | 1.16 | 1 | 1.01 | –
COR-L23 | 0.97 | 0.964 | 0.971 | 0.0694 | 0.071 | 1.03 | 1.1 | 0.976 | 0.237 | 0.116 | 1.01 | 1.07 | 0.945 | 0.375 | 0.27 | 0.948
SK-MES-1 | 0.98 | 1.05 | – | 0.319 | 0.185 | 0.998 | 1.09 | 0.941 | 0.475 | 0.162 | 0.961 | 1 | 0.947 | 0.721 | 0.414 | 0.959
NCI-H2085 | 0.979 | 0.993 | 1.07 | 0.617 | 0.23 | 1.04 | 1.05 | 0.95 | 0.695 | 0.323 | 0.962 | 0.975 | 0.9 | 0.943 | 0.56 | 0.978
NCI-H2087 | 0.9 | 0.726 | 0.79 | 0.0629 | 0.0618 | 0.959 | 0.761 | 1.09 | 0.277 | 0.13 | 1.01 | 1.14 | 0.8 | 0.876 | 0.298 | 1.08
HCC-366 | 1.03 | 1.05 | 1.02 | 1.01 | 0.045 | 0.954 | 1.03 | 0.985 | 0.452 | 0.0338 | 1 | 1.05 | 1.02 | 1.01 | 0.744 | 0.974
NCI-H2126 | 0.968 | 1.03 | 1.1 | 0.924 | 0.749 | 0.993 | 1.04 | 0.961 | 0.875 | 0.41 | 1.03 | 0.959 | 0.931 | 0.989 | 0.918 | 1.02
SK-LU-1 | 1.02 | 0.778 | 1.22 | 0.212 | 0.162 | 1.05 | 1.09 | 0.962 | 0.455 | 0.143 | 1.03 | 1.04 | 0.797 | 0.808 | 0.616 | 0.969
HCC-78 | 0.874 | 0.815 | 0.52 | 0.512 | 0.329 | 0.904 | 1.14 | 1.08 | 0.701 | 0.27 | 1.09 | 0.866 | 0.891 | 0.771 | 1.02 | 0.901
